Results on 2 compounds are retold here after US8980846B2, “Composition containing styraxlignolide A or the aglycone thereof as an active ingredient for preventing or treating asthma” (Korea Research Institute of Bioscience and Biotechnology, priority 2010, dated 2015).

The test system of series [1] is TGF-β1. In words: TGF-β1 in bronchoalveolar lavage fluid. Type of series: in vivo, Balb/c female mice. The conditions noted are these: asthma-induced mice, homoegonol study; 30 mg/kg PO. On the procedure: (§1) To prepare bronchial asthma-induced experimental animals, six-week-old Balb/c female mice of mean weight about 20 g were used. After one week of adaptation, individuals which had no observed abnormality on a basic physical examination were targeted. 200 μL of phosphate buffered saline (PBS)(pH 7.4) in which 2 mg of aluminum hydroxide (A8222, Sigma, St. Louis, Mo.) and 20 μg of ovalbumin (A5503, Sigma, St. Louis, Mo.) were suspended was injected into the peritoneal cavity at two-week intervals to result in sensitization. On days 28 to 30 after the first intraperitoneal administration of ovalbumin, inhalation challenge was performed for 30 min with 1% ovalbumin using an ultrasonic atomizer. 24 hours after the last antigen administration, airway hyperresponsiveness was measured. After 24 hours, a lethal dose of pentobarbital (Entobar®, Hanlim Pharm Co., Ltd.) was administered, body weight measurement and bronchotomy were performed, and bronchoalveolar lavage was performed with a total 1.2 mL of physiological saline, and then, samples were collected. […] Eight white mice were used for each group. Experimental groups for homoegonol were a group (hE7.5) in which animals were orally administered with 7.5 mg/kg homoegonol 1 hour prior to ovalbumin inhalation, a group (hE15) in which animals were orally administered with 15 mg/kg homoegonol 1 hour prior to ovalbumin inhalation, and a group (hE30) in which animals were orally administered with 30 mg/kg homoegonol 1 hour prior to ovalbumin inhalation, and five white mice were used for each group.
(§2) To examine the effect of homoegonol on airway remodeling, generation of TGF-β1 and IL-17 in bronchoalveolar lavage fluid was measured.

Series [2] relates to goblet cells. Kind of series: Ratio of goblet cells to bronchial epithelial cells (PAS staining). Type of series: in vivo, Balb/c female mice. The conditions noted are these: asthma-induced mice. On the procedure: as §1
Lungs removed from each individual were subjected to conventional formalin fixation and paraffin embedding, and permanent section slides of 4 μm thickness were prepared, and periodic acid Schiff (PAS) staining was performed to determine goblet cells. Proliferation of goblet cells was assessed by measuring the ratio of goblet cells to bronchial epithelial cells.
In accordance with the method in <Experimental Example 7-2>, the ratio of goblet cells which were determined by periodic acid-Schiff staining to bronchial epithelial cells were measured to assess proliferation of goblet cells.

The subject of series [3] is ovalbumin-specific IgE. Kind of series: IgE levels in serum and bronchoalveolar lavage fluid (ELISA). Type of series: in vivo, Balb/c female mice. As to conditions: asthma-induced mice. On the procedure:
as §1
To measure serum and bronchoalveolar lavage fluid ovalbumin-specific IgE levels caused by administration of styraxlignolide A, an immunoenzyme technique was used. 20 μg/mL of ovalbumin was dissolved in a 0.1 M NAHCO3 buffer (pH 8.3), and was placed into a 96-well flat bottom ELISA plate to be coated at 4° C. overnight. Non-specific binding was blocked with PBS containing 1% bovine serum albumin, and a serum sample was diluted 1:400 and was allowed to react at room temperature for 2 hours. Then, the plate was washed well, and anti-mouse IgE monoclonal antibody was diluted 1:300 and was allowed to react for 2 hours. Then, HRP-conjugated goat anti-rat IgG polyclonal antibody which was coupled to peroxidase was diluted 1:4000 and was allowed to react at room temperature for 1 hour, and then, was washed. For color development, 3,3′,5,5′-tetramethylbezidine substrate was allowed to react, and the spectroscopic absorbance was measured at 650 nm.
To measure IgE levels which are correlated with severity of asthma to examine the effect of homoegonol on asthma, IgE levels in serum and bronchoalveolar lavage fluid were measured according to the method in <Experimental Example 4>.
(ELISA stands for enzyme-linked immunosorbent assay.)

Series [4] relates to inflammatory cells in bronchoalveolar lavage fluid. In words: Inflammatory cell counts in bronchoalveolar lavage fluid (Diff-Quick staining). It counts as in vivo, Balb/c female mice. As to conditions: asthma-induced mice. As to the method:
as §1
Bronchoalveolar lavage fluid was collected from individuals of each experimental group in <Example 2> and right after the collection, fluid was stained with trypan blue. The number of total cells except dead cells was calculated using a hemocytometer. Then, Diff-Quick staining (Sysmex, Swizerland) was performed after smear preparation with Cytospin II, and eosinophils and other inflammatory cells were differentially counted.
To examine the effect of homoegonol on asthma, variation in the numbers of asthma-related inflammatory cells was measured according to the method in <Experimental Example 3>.

Series [5] in a line: Body weight in asthma-induced mice. It counts as in vivo, Balb/c female mice. On the procedure: as §1
To determine an effect of styraxlignolide A on reduction in body weight in asthma-induced mice, body weight of each mouse prepared in Example 2 was measured. For statistical analyses for all measurements, means and standard errors (mean±S.E.) according to a number of variables were calculated, and comparison between each group was analyzed by performing a Mann-whitney U test using SPSS 10.0. Statically significance was accepted at p<0.05.
To determine an effect of homoegonol on reduction in body weight in asthma-induced mice, body weight of each mouse prepared in Example 2 was measured. For statistical analyses for all measurements, means and standard errors (mean±S.E.) according to a number of variables were calculated, and comparison between each group was analyzed by performing a Mann-whitney U test using SPSS 10.0. Statically significance was accepted at p<0.05.

In series [6] the test system is inflammatory cells in bronchoalveolar lavage fluid. Kind of series: Inflammatory cell counts in bronchoalveolar lavage fluid (Diff-Quick staining). It counts as in vivo, Balb/c female mice. The conditions noted are these: asthma-induced mice, styraxlignolide A study.
Series [7] concerns IL-17. In words: IL-17 in bronchoalveolar lavage fluid. As to conditions: asthma-induced mice, homoegonol study; 30 mg/kg PO. It counts as in vivo, Balb/c female mice. On the procedure: as §1, §2
Series [8] has as its system airway hyperresponsiveness. In words: Airway hyperresponsiveness, Penh by one chamber plethysmography after methacholine inhalation. Type of series: in vivo, Balb/c female mice. The conditions noted are these: asthma-induced mice; for Penh values: homoegonol study, 30 mg/kg PO. On the procedure:
as §1, with “Experimental groups for homoegonol were a group (hE7.5) in which animals were orally administered with 7.5 mg/kg homoegonol 1 hour prior to ovalbumin inhalation, a group (hE15) in which animals were orally administered with 15 mg/kg homoegonol 1 hour prior to ovalbumin inhalation, and a group (hE30) in which animals were orally administered with 30 mg/kg homoegonol 1 hour prior to ovalbumin inhalation, and five white mice were used for each group.” left out
The effect of styraxlignolide A on airway hyperresponsiveness caused by asthma occurrence was examined by measuring airway resistance with one chamber plethysmography (All medicus, Seoul, Republic of Korea) and degree of airway resistance was assessed by measuring Penh (enhanced pause) values. The baseline value was measured under a normal respiratory condition, and then, PBS was inhaled using an ultrasonic atomizer for 3 min, and Penh values were measured over 3 min. […] Louis, Mo.) which is used in general methods for diagnosis of bronchial asthma were inhaled and Penh values were measured. Penh value is shown in the following Equation 1, and the resulting Penh value was expressed as a percent increase in Penh after inhalation of each concentration of methacholine. The baseline Penh (saline challenge) was expressed as 100%.
Te: expiratory time (sec), the time from inspiration to the next inspiration
RT: relaxation time, the elapsed time between the beginning of the expiration and the moment when the remaining 30% of the tidal volume has been reached during expiration
PEF: Peak expiration flow
PIF: Peak inspiration flow
To examine the effect of homoegonol on airway hyperresponsiveness caused by asthma occurrence, Penh value was measured according to the method in <Experimental Example 2>.

The subject of series [9] is alanine aminotransferase (ALT) and aspartate aminotransferase (AST) in serum. Type of series: in vivo. As to the method: as §1
To examine liver toxicity of styraxlignolide A, a commercially available ELISA kit (BECKMAN Coulter, Inc., Fullerton, Calif., USA) was used to measure alanine aminotransferase (ALT) and aspartate aminotransferase (AST) in serum.

In series [10] the test system is reactive oxygen species. In words: Reactive oxygen species generation in bronchoalveolar lavage fluid (2,7-dichlorofluorescein diacetate). Details: dose or concentration left out as unconfirmed. The conditions noted are these: asthma-induced mice, styraxlignolide A study, 1 hour prior to ovalbumin inhalation. Type of series: in vivo, Balb/c female mice. As to the method:
To prepare bronchial asthma-induced experimental animals, six-week-old Balb/c female mice of mean weight about 20 g were used. After one week of adaptation, individuals which had no observed abnormality on a basic physical examination were targeted. 200 μL of phosphate buffered saline (PBS)(pH 7.4) in which 2 mg of aluminum hydroxide (A8222, Sigma, St. Louis, Mo.) and 20 μg of ovalbumin (A5503, Sigma, St. Louis, Mo.) were suspended was injected into the peritoneal cavity at two-week intervals to result in sensitization. On days 28 to 30 after the first intraperitoneal administration of ovalbumin, inhalation challenge was performed for 30 min with 1% ovalbumin using an ultrasonic atomizer. 24 hours after the last antigen administration, airway hyperresponsiveness was measured. […]
To measure the amount of generated reactive oxygen species caused by administration of styraxlignolide A, some bronchoalveolar lavage fluid of each individual in <Example 2> was washed with PBS, and 10 μM 2,7-dichlorofluorescein diacetate (35845, Sigma, St. Louis, Mo.) was added thereto and bronchoalveolar lavage fluid was allowed to stand still in a room temperature dark room for 10 min, and the amount of generated reactive oxygen species was measured by a spectrofluorometer (Ex=480 nm, Em=522 nm).

For series [11], the system named is inflammatory cells in the airway mucosa. Kind of series: Inflammatory cell infiltration in airway mucosa, inflammatory index (H&E staining). It counts as in vivo, Balb/c female mice. As to conditions: asthma-induced mice, styraxlignolide A study; 30 mg/kg PO 1 hour prior to ovalbumin inhalation; scale 0-4.
The test system of series [12] is fibrosis in subsegmental bronchi. Kind of series: Fibrosis in subsegmental bronchi (Masson's trichrome staining). It counts as in vivo, Balb/c female mice. The conditions noted are these: asthma-induced mice, styraxlignolide A study; 1 hour prior to ovalbumin inhalation. On the procedure: as §1
Where [13] appears, read: homoegonol study, 30 mg/kg PO, bronchoalveolar lavage fluid.
The mark [14] stands for this setting: homoegonol study, 30 mg/kg PO, bronchoalveolar lavage fluid, 30 mg/kg.
The mark [15] stands for this setting: styraxlignolide A study, 30 mg/kg PO 1 hour prior to ovalbumin inhalation.
Where [16] appears, read: asthma-induced mice, styraxlignolide A study, 30 mg/mL PO 1 hour prior to ovalbumin inhalation.

Like-named read-outs stand apart in the source and are kept apart here.

Regarding `CC(C)(O)c1ccccc1CC[C@@H](SCC1(CC(=O)O)CC1)c1cccc(/C=C/c2ccc3ccc(Cl)cc3n2)c1` [Monte, montelukast, reference compound], in [1], the “TGF-β1 concentrations in bronchoalveolar lavage fluid” value is 215.9375 ± 13.4334 pg/mL. For the same compound, the “Goblet cells %/bronchial epithelial cell unit” value in series [2] (homoegonol study, 30 mg/kg PO, 30 mg/kg) was determined as 34.6476±11.5492%. For the same compound, in series [3] (setting [13]), the “Total IgE level in bronchoalveolar lavage fluid” value is 104.7447 ± 9.7295 ng/mL. For the same compound, the “Total serum IgE level” value in series [3] (homoegonol study, 30 mg/kg PO, serum, Table 2) turned out to be 16.22 ± 2.6329 µg/mL. Also, the “Number of cells, Other inflammatory cells” value in series [4] (setting [13]) was 48.84 ± 3.7377 ×10^3 cells/mouse. For the same compound, the “Number of cells, Eosinophils” value in series [4] (setting [14]) was 19.12±9.17 ×10^3 cells/mouse. The “Number of cells, Total inflammatory cells” value in series [4] (setting [14]) was 67.96±15.0532 ×10^3 cells/mouse. Further, in [4] (setting [15]), the “numbers of total inflammatory cells in bronchoalveolar lavage fluid” value turned out to be 193.29±19.99. Also, the body weight in [5] (homoegonol study, 30 mg/kg PO 1 hour prior to ovalbumin inhalation) was 21.08 ± 0.57 g; in series [5] (setting [15]), 21.04 ± 0.30 g. The “numbers of eosinophils in bronchoalveolar lavage fluid” value in series [6] (30 mg/kg PO 1 hour prior to ovalbumin inhalation) turned out to be 60.67±6.58. In addition, the “IL-17 concentrations in bronchoalveolar lavage fluid” value in [7] came out at 15.8409 ± 2.5686 pg/mL. Further, the Penh values worked out at 0.6071 ± 0.0618 in series [8] (methacholine 0 mg/ml), 1.2979 ± 0.1537 in [8] (methacholine 12.5 mg/ml), 1.4748 ± 0.1639 in series [8] (methacholine 25 mg/ml) and 2.3069 ± 0.4225 in series [8] (methacholine 50 mg/ml). For the same compound, the “serum ALT” value in [9] (mouse, in vivo, po, 30 mg/kg) is 122.50±14.94 IU/L. Besides, the “serum AST” value in [9] (mouse, in vivo, po, 30 mg/kg) is 205.00±27.17 IU/L.

With `COc1ccc(-c2cc3cc(CCCO[C@@H]4OC(CO[C@@H]5OC[C@@H](O)C(O)C5O)[C@@H](O)C(O)C4O)cc(OC)c3o2)cc1OC` (stereo partly drawn) [styraxlignolide A], in series [2] (styraxlignolide A study, 1 hour prior to ovalbumin inhalation), the “ratio of goblet cells to bronchiolar epithelial cells” value came to 29.52±8.02%. Moreover, the “generated amount of reactive oxygen species, reduction compared to the asthma-induced group” value in series [10] is recorded as 27.90%. Moreover, the “Ovalbumin-specific IgE level in bronchoalveolar lavage fluid” value in [3] (styraxlignolide A study, 1 hour prior to ovalbumin inhalation, bronchoalveolar lavage fluid) turned out to be 15.4 ± 2.18 ng/mL. Also, the “serum ovalbumin-specific IgE level” value in series [3] (styraxlignolide A study, 1 hour prior to ovalbumin inhalation, serum, difference to asthma-induced group not significant) worked out at 382 ± 60.60 ng/mL. In addition, the peribronchiolar inflammatory index in [11] was found to be 1.17±0.2. In [5] (styraxlignolide A study, 30 mg/mL PO 1 hour prior to ovalbumin inhalation), this compound registered a body weight of 21.04 ± 0.34 g. The “numbers of eosinophils in bronchoalveolar lavage fluid” value in series [6] (30 mg/mL PO 1 hour prior to ovalbumin inhalation) came to 20.77±2.34. Further, in [6] (1 hour prior to ovalbumin inhalation), the “numbers of total inflammatory cells in bronchoalveolar lavage fluid” value is recorded as 147.83±12.61. In series [12], the “area of a fibrosis stained region per 100 μm of a basement membrane perimeter” value was 495.69±98.62 μm^2. For the same compound, the “Penh (enhanced pause) values compared to the comparative groups” value in series [8] (styraxlignolide A study, 30 mg/mL PO 1 hour prior to ovalbumin inhalation, methacholine 12.5, 25, or 50 mg/mL) was “reduced Penh values compared to the comparative groups”. In series [9] (setting [16]), the “serum ALT” value was determined as 168.67±15.56 IU/L and the “serum AST” value was 245.33±12.87 IU/L.
